{"source": "paper PMC12756739", "about": "(ACS Omega, 2025)", "key": {"[1]": {"test_system": "A549 cell line", "assay": "MTT cytotoxicity test, A549 cell line", "format": "cell-based", "conditions": "Homo sapiens, A549, read-out: IC50 (μM) A549"}, "[2]": {"test_system": "MCF-7 cell line", "assay": "MTT cytotoxicity test, MCF-7 cell line", "format": "cell-based", "conditions": "Homo sapiens, MCF7, read-out: IC50 (μM) MCF-7"}, "[3]": {"test_system": "NIH3T3 cells", "assay": "MTT cytotoxicity test, NIH3T3 cell line", "format": "cell-based", "conditions": "Mus musculus, NIH3T3, read-out: IC50 (μM) NIH3T3"}, "[4]": {"molecular_target": "EGFR enzyme (Homo sapiens, UniProt P00533)", "sequence (P00533 25-1210)": "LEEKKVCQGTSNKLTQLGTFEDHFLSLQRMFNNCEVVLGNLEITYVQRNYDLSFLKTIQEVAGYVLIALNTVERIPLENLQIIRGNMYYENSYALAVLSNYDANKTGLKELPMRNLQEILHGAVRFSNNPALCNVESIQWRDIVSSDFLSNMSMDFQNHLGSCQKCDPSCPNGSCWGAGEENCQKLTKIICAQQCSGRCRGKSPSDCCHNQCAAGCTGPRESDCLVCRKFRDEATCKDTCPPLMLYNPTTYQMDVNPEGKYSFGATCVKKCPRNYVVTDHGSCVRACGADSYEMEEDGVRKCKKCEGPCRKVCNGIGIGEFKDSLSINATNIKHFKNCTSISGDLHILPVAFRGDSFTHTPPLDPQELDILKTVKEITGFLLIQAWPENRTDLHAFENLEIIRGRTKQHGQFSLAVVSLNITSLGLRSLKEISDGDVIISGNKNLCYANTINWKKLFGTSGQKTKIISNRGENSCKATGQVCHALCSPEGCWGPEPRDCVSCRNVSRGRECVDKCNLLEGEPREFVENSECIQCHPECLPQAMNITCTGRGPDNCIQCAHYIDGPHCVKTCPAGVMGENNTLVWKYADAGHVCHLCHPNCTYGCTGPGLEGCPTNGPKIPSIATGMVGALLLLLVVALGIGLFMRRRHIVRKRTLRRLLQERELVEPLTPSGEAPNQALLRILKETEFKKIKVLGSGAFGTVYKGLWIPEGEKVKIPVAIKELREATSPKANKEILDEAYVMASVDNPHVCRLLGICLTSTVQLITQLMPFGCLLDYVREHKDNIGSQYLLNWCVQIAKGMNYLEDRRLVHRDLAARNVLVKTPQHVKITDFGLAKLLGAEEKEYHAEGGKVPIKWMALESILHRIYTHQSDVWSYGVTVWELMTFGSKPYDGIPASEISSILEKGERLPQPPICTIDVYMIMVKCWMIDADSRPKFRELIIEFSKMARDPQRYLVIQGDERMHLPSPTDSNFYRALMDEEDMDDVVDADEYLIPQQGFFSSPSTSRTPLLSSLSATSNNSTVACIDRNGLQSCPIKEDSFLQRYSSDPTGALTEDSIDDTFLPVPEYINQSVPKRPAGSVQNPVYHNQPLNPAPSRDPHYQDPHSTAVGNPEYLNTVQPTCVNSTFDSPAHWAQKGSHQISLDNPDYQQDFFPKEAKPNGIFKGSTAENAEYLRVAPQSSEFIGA", "assay": "EGFR kinase inhibition assay", "format": "biochemical"}, "[5]": {"molecular_target": "T1, COX-2 enzyme (Homo sapiens, UniProt P35354)", "T1 sequence (P35354 18-604)": "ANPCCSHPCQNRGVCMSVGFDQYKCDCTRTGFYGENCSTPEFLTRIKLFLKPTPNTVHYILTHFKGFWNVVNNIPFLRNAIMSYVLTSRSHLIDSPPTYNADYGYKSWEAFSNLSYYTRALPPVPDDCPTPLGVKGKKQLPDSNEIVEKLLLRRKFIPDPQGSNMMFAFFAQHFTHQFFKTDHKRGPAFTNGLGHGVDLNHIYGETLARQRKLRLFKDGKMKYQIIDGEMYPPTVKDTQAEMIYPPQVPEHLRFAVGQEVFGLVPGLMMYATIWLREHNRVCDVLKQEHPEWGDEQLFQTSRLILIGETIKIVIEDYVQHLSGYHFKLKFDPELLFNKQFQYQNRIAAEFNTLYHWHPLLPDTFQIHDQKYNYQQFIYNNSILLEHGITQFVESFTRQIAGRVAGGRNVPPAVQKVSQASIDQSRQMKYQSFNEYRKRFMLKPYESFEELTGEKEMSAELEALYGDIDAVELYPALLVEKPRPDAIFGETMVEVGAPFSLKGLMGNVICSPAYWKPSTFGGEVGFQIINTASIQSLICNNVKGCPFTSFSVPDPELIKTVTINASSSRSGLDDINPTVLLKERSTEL", "assay": "biochemical"}, "[6]": {"test_system": "MCF-7 cell line", "assay": "Flow cytometric apoptosis/necrosis analysis", "format": "cell-based", "conditions": "at the IC50 concentration"}, "[7]": {"test_system": "EGFR^T790M", "conditions": "read-out: IC50 EGFR^T790M; ref Aboelez et al.; cited from earlier work"}, "[8]": {"test_system": "EGFR^WT", "conditions": "read-out: IC50 EGFR^WT; ref Aboelez et al.; cited from earlier work"}, "[9]": {"test_system": "tubulin polymerization", "conditions": "read-out: antitubulin polymerization IC50; ref Aboelez et al.; cited from earlier work"}, "[10]": {"test_system": "VEGFR-2", "conditions": "read-out: IC50 VEGFR-2; ref Abd El-Mawgoud et al.; cited from earlier work"}, "[11]": {"test_system": "AKT-1", "conditions": "read-out: IC50 AKT-1; ref Abd El-Mawgoud et al.; cited from earlier work"}, "[12]": {"test_system": "COX-2", "conditions": "ref Fadaly et al.; cited from earlier work"}, "[13]": {"test_system": "EGFR^WT", "conditions": "ref Fadaly et al.; cited from earlier work"}, "[14]": {"test_system": "EGFR^L858R/T790M", "conditions": "ref Fadaly et al.; cited from earlier work"}, "[15]": {"test_system": "HDAC1", "conditions": "read-out: IC50 HDAC1; ref Mohamed et al.; cited from earlier work"}, "[16]": {"test_system": "HDAC2", "conditions": "read-out: IC50 HDAC2; ref Mohamed et al.; cited from earlier work"}, "[17]": {"molecular_target": "CA IX", "conditions": "read-out: inhibition constant CA IX; ref Mohamed et al.; cited from earlier work"}, "[18]": {"molecular_target": "CA XII", "conditions": "read-out: inhibition constant CA XII; ref Mohamed et al.; cited from earlier work"}, "[19]": {"test_system": "tubulin polymerization", "conditions": "read-out: IC50 antitubulin polymerization assay; ref Mohamed et al.; cited from earlier work"}}, "note": "Read-outs that look alike come from different tables or passages of the source."}
{"smiles": "NS(=O)(=O)c1ccc(NC(=O)CSc2nnc(NC(=O)c3ccc(Cl)cc3)s2)cc1", "note": "[3j, 4-Chloro-N-(5-((2-oxo-2-((4-sulfamoylphenyl)amino)ethyl)thio)-1,3,4-thiadiazol-2-yl)benzamide]", "values": [{"measurement": "IC50", "setting": "[1]", "value": "20.7 ± 0.984", "unit": "µM"}, {"measurement": "IC50", "setting": "[2]", "value": "2.38 ± 0.108", "unit": "µM"}, {"measurement": "IC50", "setting": "[3]", "value": "85.6 ± 3.16", "unit": "µM"}, {"measurement": "IC50", "setting": "[4]", "value": "0.02 ± 0.0008", "unit": "µM"}, {"measurement": "IC50", "setting": "[5]", "value": "0.192 ± 0.008", "unit": "µM"}, {"measurement": "% early apoptosis", "setting": "[6]; lower right quadrant", "value": 20.20, "unit": "%"}, {"measurement": "% necrosis", "setting": "[6]; upper left quadrant", "value": 4.08, "unit": "%"}, {"measurement": "% late apoptosis", "setting": "[6]; upper right quadrant", "value": 15.56, "unit": "%"}]}
{"smiles": "CC(=NNC(=O)c1sc2sc(C(=O)NN=C(C)c3ccccc3)c(N)c2c1N)c1ccccc1", "note": "[3,4-diamino-N′2,N′5-bis(1-phenylethylidene)thieno[2,3-b]thiophene-2,5-dicarbohydrazide]", "values": [{"measurement": "IC50", "setting": "[7]", "value": 0.0246, "unit": "µM"}, {"measurement": "IC50", "setting": "[8]", "value": 0.0281, "unit": "µM"}, {"measurement": "IC50", "setting": "[9]", "value": 5.1, "unit": "µM"}]}
{"smiles": "O=C(CSc1nnc(NC(=O)c2ccc(Cl)cc2)s1)Nc1ccc(C(F)(F)F)cc1", "note": "[3g, 4-Chloro-N-(5-((2-oxo-2-((4-(trifluoromethyl)phenyl)amino)ethyl)thio)-1,3,4-thiadiazol-2-yl)benzamide]", "values": [{"measurement": "IC50", "setting": "[1]", "value": "21.1 ± 0.996", "unit": "µM"}, {"measurement": "IC50", "setting": "[2]", "value": "27.1 ± 1.26", "unit": "µM"}, {"measurement": "IC50", "setting": "[3]", "value": "> 100", "unit": "µM"}, {"measurement": "IC50", "setting": "[5]", "value": "> 100", "unit": "µM"}]}
{"smiles": "Nc1nc2c3c(N)c(-c4nnc(NC(=O)c5ccccc5)s4)sc3ncn2n1", "note": "[N-(5-(2,9-diaminothieno[3,2-e]1,3,4-triazolo[1,5-c]pyrimidin-8-yl)-1,3,4-thiadiazol-2-yl)benzamide]", "values": [{"measurement": "IC50", "setting": "[10]", "value": 0.164, "unit": "µM"}, {"measurement": "IC50", "setting": "[11]", "value": 0.452, "unit": "µM"}]}
{"smiles": "O=C(CSc1nnc(NC(=O)c2ccc(Cl)cc2)s1)Nc1ccccc1", "note": "[3f, 4-Chloro-N-(5-((2-oxo-2-(phenylamino)ethyl)thio)-1,3,4-thiadiazol-2-yl)benzamide]", "values": [{"measurement": "IC50", "setting": "[1]", "value": "> 100", "unit": "µM"}, {"measurement": "IC50", "setting": "[2]", "value": "> 100", "unit": "µM"}, {"measurement": "IC50", "setting": "[3]", "value": "> 100", "unit": "µM"}, {"measurement": "IC50", "setting": "[5]", "value": "0.874 ± 0.039", "unit": "µM"}]}
{"smiles": "O=C(CSc1nnc(NC(=O)c2ccc(F)cc2)s1)Nc1ccc(C(F)(F)F)cc1", "note": "[3l, 4-Fluoro-N-(5-((2-oxo-2-((4-(trifluoromethyl)phenyl)amino)ethyl)thio)-1,3,4-thiadiazol-2-yl)benzamide]", "values": [{"measurement": "IC50", "setting": "[1]", "value": "41.1 ± 1.96", "unit": "µM"}, {"measurement": "IC50", "setting": "[2]", "value": "30.5 ± 1.37", "unit": "µM"}, {"measurement": "IC50", "setting": "[3]", "value": "46.2 ± 1.82", "unit": "µM"}, {"measurement": "IC50", "setting": "[5]; read-out: COX-2 IC50, fluorometric kit, 25 °C", "value": "0.974 ± 0.045", "unit": "µM"}]}
{"smiles": "CS(=O)(=O)c1ccc(-n2cc(/C=N/c3ccc(NC(=O)CO[N+](=O)[O-])cc3)c(-c3ccc(Br)cc3)n2)cc1", "note": "[(E)-2-((4-(((3-(4-bromophenyl)-1-(4-(methylsulfonyl)phenyl)-1H-pyrazol-4-yl)methylene)amino)phenyl)amino)-2-oxoethyl nitrate]", "values": [{"measurement": "activity against COX-2", "setting": "[12]", "value": 0.437, "unit": "µM"}, {"measurement": "activity against EGFR^WT", "setting": "[13]", "value": 0.452, "unit": "µM"}, {"measurement": "activity against EGFR^L858R/T790M", "setting": "[14]", "value": 0.031, "unit": "µM"}]}
{"smiles": "O=C(CSc1nnc(NC(=O)c2ccc(Cl)c(Cl)c2)s1)Nc1ccccc1", "note": "[3a, 3,4-Dichloro-N-(5-((2-oxo-2-(phenylamino)ethyl)thio)-1,3,4-thiadiazol-2-yl)benzamide]", "values": [{"measurement": "IC50", "setting": "[1]", "value": "> 100", "unit": "µM"}, {"measurement": "IC50", "setting": "[2]", "value": "> 100", "unit": "µM"}, {"measurement": "IC50", "setting": "[3]", "value": "> 100", "unit": "µM"}, {"measurement": "IC50", "setting": "[5]", "value": "2.39 ± 0.104", "unit": "µM"}]}
{"smiles": "COc1ccc(C(=O)Nc2nnc(SCC(=O)Nc3ccccc3)s2)cc1", "note": "[3p, 4-Methoxy-N-(5-((2-oxo-2-(phenylamino)ethyl)thio)-1,3,4-thiadiazol-2-yl)benzamide]", "values": [{"measurement": "IC50", "setting": "[1]", "value": "> 100", "unit": "µM"}, {"measurement": "IC50", "setting": "[2]", "value": "> 100", "unit": "µM"}, {"measurement": "IC50", "setting": "[3]", "value": "> 100", "unit": "µM"}, {"measurement": "IC50", "setting": "[5]", "value": "> 1000", "unit": "µM"}]}
{"smiles": "COc1cccc2c1C(=O)c1c(O)c3c(c(O)c1C2=O)C[C@@](O)(C(=O)CO)C[C@@H]3O[C@H]1C[C@H](N)[C@H](O)[C@H](C)O1", "note": "[doxorubicin, reference compound]", "values": [{"measurement": "IC50", "setting": "[3]", "value": "> 100", "unit": "µM"}]}
{"smiles": "NS(=O)(=O)c1ccc(NC(=O)COc2ccc(/C=C/C(=O)c3ccc(Br)cc3)cc2)cc1", "note": "[(E)-2-(4-(3-(4-bromophenyl)-3-oxoprop-1-en-1-yl)phenoxy)-N-(4-sulfamoylphenyl)acetamide]", "values": [{"measurement": "IC50", "setting": "[15]", "value": 0.134, "unit": "µM"}, {"measurement": "IC50", "setting": "[16]", "value": 0.0663, "unit": "µM"}, {"measurement": "Ki", "setting": "[17]", "value": "0.072 ± 0.00258", "unit": "µM"}, {"measurement": "Ki", "setting": "[18]", "value": "0.0508 ± 0.00258", "unit": "µM"}, {"measurement": "IC50", "setting": "[19]", "value": 2.56, "unit": "µM"}]}
